Square brackets hold non-standard residues; d marks the D form. Peptide text beside a SMILES is read from it. Dip = N[C@H](C(=O)O)C(c1ccccc1)c1ccccc1; Chg = N[C@H](C(=O)O)C1CCCCC1; NMeA = CN[C@@H](C)C(=O)O A value given as a limit tells only on which side of the number the result lay.

A short description of test [1]: cells. The settings on record: Homo sapiens, SKNBE2, 72 h.
The nature of test [2]: Antiproliferative activity against human SK-N-BE2 cells after 72 hrs by CyQUANT reagent based assay relative to control. Type of test: functional. The settings on record: SKNBE2.
Test [3] has as its target Histone-lysine N-methyltransferase EZH2 (Homo sapiens, UniProt Q15910). In words: Binding affinity to EZH2 (unknown origin).
Test [4] has as its target Leucine-rich repeat serine/threonine-protein kinase 2 (Homo sapiens, UniProt Q5S007, G2019S). In words: Inhibition of LRRK2 G2019S mutant (unknown origin).
Test [5] concerns the target B-cell lymphoma 6 protein (Homo sapiens) (UniProt P41182). Description: Induction of BCL6 degradation in human SU-DHL-4 cells at 5 uM measured after 2 hrs by capillary electrophoresis relative to control. The test is classed as cell-based.
For test [6] the target is unchanged. In words: Induction of BCL6 degradation in human SU-DHL-4 cells at 5 uM measured after 5 mins by capillary electrophoresis relative to control. The test is classed as cell-based.
In test [7] the target is T1, B-cell lymphoma 6 protein (Homo sapiens, UniProt P41182, C67R/C84N/C8Q). Description: Inhibition of BCOR peptide binding to BCL6 BTB domain (5 to 129 residues) C8Q/C67R/C84N triple mutant (unknown origin) expressed in Escherichia coli BL21(DE3) cells preincubated for 30 mins followed by BCOR ULight peptide addition and measured after 240 mins by TR-FRET assay. (In TR-FRET formats the signal depends on donor and acceptor labels being close together.)

In test [8] the target is T2, Androgen receptor (Homo sapiens, UniProt P10275).
T2 sequence (P10275 whole entry): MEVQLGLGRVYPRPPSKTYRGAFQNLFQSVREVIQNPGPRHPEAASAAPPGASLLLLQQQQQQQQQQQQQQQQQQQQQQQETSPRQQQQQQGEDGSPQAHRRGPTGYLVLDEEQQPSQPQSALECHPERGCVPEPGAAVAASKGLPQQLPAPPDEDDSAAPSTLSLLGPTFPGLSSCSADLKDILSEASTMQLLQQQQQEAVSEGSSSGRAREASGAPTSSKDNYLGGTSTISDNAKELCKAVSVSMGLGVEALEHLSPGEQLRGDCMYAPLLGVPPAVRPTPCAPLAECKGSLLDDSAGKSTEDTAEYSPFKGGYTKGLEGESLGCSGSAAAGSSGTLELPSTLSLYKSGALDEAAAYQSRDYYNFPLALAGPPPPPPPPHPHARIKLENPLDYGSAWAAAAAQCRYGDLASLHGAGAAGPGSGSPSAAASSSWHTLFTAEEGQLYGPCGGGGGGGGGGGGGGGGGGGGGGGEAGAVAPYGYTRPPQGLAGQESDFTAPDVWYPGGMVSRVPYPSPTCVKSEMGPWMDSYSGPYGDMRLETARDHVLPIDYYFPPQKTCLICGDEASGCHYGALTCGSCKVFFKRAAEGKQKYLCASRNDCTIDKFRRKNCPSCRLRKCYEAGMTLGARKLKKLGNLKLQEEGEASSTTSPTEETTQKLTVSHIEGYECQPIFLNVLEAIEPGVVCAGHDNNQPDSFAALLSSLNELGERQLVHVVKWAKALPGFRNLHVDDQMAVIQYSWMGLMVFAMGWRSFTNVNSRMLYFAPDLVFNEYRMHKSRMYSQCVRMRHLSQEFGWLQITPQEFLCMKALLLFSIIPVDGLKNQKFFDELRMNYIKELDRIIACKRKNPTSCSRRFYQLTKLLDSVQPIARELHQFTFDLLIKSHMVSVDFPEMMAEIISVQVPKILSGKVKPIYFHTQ
Description: Inhibition of androgen receptor LBD domain (unknown origin).

The target of test [9] is E3 ubiquitin-protein ligase XIAP (Homo sapiens, UniProt P98170). In words: Binding affinity to XIAP-BIR3 (unknown origin) (124 to 240 residues) expressed in Escherichia coli BL21-Gold (DE3) by surface plasmon resonance assay. Background: SPR reads the build-up and loss of mass on a sensor chip optically.
The target of test [10] is Baculoviral IAP repeat-containing protein 2 (Homo sapiens, UniProt Q13490). Description: Binding affinity to c-IAP1-BIR3 (unknown origin) (124 to 240 residues) expressed in Escherichia coli BL21-Gold (DE3) by surface plasmon resonance assay.
For test [11], the system named is OVCAR-3. In words: Growth inhibition of human OVCAR3 cells incubated for 48 hrs by MTT assay. The test is classed as functional, cell-based. To be noted: OVCAR-3, 48 h. A general note: Tetrazolium assays rely on reduction of a dye to a coloured formazan, in cell work by metabolically active cells.
Test [12] is described as follows: Selectivity ratio of IC50 for human IOSE144 cells to IC50 for human A2780 cells. The test is classed as functional.
Test [13] is described as follows: Selectivity ratio of IC50 for human IOSE144 cells to IC50 for human OVCAR3 cells. The test is classed as functional.
Test [14] relates to A2780. In words: Growth inhibition of human A2780 cells incubated for 48 hrs by MTT assay. Type of test: functional, cell-based. The settings on record: A2780, 48 h.
The target of test [15] is Non-receptor tyrosine-protein kinase TYK2 (Homo sapiens, UniProt P29597). Description: Inhibition of human TYK2 using 5FAM-KKSRGDYMTMQID as substrate by caliper microfluidic mobility shift assay.
The target in test [16] is Tyrosine-protein kinase JAK2 (Homo sapiens, UniProt O60674). In words: Inhibition of human JAK2 using FITC-KGGEEEEYFELVKK as substrate by caliper microfluidic mobility shift assay.
The target of test [17] is T3, Tyrosine-protein kinase JAK3 (Homo sapiens, UniProt P52333).
T3 sequence (P52333 whole entry): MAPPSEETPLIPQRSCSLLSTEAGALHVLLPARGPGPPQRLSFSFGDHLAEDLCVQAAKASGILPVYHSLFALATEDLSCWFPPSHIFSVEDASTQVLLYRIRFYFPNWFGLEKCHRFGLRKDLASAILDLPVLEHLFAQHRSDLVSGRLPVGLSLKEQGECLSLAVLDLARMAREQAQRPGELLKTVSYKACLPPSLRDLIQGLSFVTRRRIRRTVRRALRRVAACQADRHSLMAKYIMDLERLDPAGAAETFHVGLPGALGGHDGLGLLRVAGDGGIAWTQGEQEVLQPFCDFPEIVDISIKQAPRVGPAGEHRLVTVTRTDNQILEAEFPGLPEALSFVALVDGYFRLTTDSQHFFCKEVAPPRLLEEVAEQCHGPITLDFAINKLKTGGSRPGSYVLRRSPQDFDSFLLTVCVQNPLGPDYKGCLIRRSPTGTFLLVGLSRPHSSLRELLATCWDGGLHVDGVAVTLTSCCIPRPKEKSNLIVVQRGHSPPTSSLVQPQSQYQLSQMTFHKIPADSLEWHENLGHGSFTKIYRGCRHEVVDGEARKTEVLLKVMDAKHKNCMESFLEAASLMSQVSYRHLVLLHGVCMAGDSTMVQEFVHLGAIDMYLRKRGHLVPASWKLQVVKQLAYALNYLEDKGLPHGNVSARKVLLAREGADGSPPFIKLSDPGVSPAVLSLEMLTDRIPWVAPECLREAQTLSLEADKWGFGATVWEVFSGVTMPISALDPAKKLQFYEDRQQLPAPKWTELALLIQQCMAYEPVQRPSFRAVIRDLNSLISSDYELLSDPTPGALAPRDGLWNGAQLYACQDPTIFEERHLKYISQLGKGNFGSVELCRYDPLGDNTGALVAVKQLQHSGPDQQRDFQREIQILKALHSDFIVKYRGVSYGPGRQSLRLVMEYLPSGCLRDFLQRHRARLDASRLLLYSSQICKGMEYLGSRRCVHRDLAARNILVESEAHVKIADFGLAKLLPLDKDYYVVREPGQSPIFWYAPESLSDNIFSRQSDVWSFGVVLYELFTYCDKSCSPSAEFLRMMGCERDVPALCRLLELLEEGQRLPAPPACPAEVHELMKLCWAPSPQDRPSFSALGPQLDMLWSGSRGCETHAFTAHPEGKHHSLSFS
Description: Inhibition of human JAK3 using FITC-KGGEEEEYFELVKK as substrate by caliper microfluidic mobility shift assay.

Test [18] addresses Tyrosine-protein kinase JAK1 (Homo sapiens, UniProt P23458). In words: Inhibition of human JAK1 using 5FAM-KKSRGDYMTMQID as substrate by caliper microfluidic mobility shift assay.
Test [19] is described as follows: Downregulation of JAK3 mRNA expression in human PBMC at 1 uM after 22 hrs by qPCR analysis relative to control. The test is classed as functional.
The nature of test [20]: Downregulation of JAK2 mRNA expression in human PBMC at 1 uM after 22 hrs by qPCR analysis relative to control. Type of test: functional.
Test [21] deals with T1, B-cell lymphoma 6 protein. In words: Inhibition of BCL6 BTB domain (5 to 129 residues) C8Q/C67R/C84N triple mutant (unknown origin) expressed in Escherichia coli BL21(DE3) cells using 5-TAMRA-RSEIISTAPSSWVVPG incubated for 1 hr by fluorescence polarization assay.

Sequence of Histone-lysine N-methyltransferase EZH2 (Q15910 whole entry): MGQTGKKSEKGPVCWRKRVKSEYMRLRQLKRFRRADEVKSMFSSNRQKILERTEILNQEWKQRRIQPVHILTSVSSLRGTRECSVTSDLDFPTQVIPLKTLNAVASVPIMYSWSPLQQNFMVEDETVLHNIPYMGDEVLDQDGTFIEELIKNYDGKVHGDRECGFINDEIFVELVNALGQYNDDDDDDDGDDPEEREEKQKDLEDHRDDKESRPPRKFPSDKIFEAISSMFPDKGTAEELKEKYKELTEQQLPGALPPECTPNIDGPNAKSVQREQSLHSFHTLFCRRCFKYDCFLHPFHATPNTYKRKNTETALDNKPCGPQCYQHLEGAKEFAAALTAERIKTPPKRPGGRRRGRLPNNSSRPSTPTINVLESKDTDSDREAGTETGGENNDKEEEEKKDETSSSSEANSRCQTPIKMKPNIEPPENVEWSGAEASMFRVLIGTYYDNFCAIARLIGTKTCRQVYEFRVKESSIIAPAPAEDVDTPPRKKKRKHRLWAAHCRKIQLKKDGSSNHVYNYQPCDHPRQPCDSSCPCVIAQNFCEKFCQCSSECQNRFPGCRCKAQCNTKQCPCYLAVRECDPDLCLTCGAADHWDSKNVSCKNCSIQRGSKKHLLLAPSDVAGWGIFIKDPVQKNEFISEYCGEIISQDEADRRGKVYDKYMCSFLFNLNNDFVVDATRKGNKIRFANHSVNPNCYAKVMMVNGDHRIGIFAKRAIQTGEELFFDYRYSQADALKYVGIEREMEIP
Sequence of Leucine-rich repeat serine/threonine-protein kinase 2 (Q5S007 whole entry G2019S): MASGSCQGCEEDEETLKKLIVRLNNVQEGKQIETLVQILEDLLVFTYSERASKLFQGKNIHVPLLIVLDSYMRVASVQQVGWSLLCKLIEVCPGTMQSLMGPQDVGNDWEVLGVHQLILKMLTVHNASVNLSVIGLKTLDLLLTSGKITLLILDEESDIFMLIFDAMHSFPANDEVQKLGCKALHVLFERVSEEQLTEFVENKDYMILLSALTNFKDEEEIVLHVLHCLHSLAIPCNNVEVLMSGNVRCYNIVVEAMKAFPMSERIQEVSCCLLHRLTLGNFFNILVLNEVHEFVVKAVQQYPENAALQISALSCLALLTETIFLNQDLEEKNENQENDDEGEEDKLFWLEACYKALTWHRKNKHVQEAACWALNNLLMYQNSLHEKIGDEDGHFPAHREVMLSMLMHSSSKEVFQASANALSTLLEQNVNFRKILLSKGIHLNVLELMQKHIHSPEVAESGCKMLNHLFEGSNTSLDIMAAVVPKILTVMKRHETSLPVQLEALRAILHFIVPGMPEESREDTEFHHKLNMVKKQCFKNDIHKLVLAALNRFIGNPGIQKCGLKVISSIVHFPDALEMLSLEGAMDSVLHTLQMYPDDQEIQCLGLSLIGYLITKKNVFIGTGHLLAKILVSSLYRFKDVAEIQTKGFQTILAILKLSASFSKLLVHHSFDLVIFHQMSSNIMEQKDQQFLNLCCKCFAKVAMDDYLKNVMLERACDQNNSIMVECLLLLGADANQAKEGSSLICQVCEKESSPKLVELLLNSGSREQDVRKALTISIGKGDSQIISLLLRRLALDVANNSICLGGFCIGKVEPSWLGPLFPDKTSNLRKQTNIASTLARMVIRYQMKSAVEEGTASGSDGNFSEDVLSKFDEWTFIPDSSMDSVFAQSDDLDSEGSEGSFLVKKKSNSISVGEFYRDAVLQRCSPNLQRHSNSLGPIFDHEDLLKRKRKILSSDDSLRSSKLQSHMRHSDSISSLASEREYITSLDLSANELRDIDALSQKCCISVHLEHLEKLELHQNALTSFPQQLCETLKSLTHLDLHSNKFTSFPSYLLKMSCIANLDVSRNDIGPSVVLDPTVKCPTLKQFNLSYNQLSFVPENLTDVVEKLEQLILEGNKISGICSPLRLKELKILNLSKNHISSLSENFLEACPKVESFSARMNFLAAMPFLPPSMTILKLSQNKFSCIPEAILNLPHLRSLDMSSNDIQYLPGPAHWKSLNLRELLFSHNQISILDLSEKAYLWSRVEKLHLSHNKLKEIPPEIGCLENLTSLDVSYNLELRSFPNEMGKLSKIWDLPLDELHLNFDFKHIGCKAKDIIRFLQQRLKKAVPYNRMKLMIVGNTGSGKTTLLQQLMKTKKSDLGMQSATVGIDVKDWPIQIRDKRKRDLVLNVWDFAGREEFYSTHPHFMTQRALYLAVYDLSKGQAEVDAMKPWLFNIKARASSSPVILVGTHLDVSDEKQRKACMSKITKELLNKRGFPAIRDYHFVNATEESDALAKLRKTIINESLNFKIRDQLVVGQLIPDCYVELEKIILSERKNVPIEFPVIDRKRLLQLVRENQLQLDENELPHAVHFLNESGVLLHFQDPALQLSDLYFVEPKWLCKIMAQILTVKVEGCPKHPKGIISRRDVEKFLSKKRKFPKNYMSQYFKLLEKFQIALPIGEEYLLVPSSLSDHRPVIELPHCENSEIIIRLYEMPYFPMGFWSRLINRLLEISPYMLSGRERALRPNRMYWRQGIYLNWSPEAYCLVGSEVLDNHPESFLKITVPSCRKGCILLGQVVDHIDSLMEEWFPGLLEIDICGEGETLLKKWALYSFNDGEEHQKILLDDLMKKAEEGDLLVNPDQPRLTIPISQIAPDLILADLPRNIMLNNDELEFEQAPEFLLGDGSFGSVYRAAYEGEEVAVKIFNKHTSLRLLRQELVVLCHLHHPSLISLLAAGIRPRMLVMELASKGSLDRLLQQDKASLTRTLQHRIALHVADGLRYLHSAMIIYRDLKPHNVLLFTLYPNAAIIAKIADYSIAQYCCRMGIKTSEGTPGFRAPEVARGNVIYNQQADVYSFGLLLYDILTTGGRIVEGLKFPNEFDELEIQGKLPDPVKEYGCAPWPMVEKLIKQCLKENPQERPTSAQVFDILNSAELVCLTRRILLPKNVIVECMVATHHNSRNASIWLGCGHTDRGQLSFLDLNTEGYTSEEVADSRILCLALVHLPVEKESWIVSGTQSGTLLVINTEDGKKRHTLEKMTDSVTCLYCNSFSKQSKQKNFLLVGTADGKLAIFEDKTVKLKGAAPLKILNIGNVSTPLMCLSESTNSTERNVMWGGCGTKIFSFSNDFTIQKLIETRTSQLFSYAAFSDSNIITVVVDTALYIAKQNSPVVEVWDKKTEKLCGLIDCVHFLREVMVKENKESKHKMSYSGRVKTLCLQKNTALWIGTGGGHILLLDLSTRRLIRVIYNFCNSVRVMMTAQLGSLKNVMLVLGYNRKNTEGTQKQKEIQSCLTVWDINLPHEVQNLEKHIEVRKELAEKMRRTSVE
Sequence of Tyrosine-protein kinase JAK1 (P23458 whole entry): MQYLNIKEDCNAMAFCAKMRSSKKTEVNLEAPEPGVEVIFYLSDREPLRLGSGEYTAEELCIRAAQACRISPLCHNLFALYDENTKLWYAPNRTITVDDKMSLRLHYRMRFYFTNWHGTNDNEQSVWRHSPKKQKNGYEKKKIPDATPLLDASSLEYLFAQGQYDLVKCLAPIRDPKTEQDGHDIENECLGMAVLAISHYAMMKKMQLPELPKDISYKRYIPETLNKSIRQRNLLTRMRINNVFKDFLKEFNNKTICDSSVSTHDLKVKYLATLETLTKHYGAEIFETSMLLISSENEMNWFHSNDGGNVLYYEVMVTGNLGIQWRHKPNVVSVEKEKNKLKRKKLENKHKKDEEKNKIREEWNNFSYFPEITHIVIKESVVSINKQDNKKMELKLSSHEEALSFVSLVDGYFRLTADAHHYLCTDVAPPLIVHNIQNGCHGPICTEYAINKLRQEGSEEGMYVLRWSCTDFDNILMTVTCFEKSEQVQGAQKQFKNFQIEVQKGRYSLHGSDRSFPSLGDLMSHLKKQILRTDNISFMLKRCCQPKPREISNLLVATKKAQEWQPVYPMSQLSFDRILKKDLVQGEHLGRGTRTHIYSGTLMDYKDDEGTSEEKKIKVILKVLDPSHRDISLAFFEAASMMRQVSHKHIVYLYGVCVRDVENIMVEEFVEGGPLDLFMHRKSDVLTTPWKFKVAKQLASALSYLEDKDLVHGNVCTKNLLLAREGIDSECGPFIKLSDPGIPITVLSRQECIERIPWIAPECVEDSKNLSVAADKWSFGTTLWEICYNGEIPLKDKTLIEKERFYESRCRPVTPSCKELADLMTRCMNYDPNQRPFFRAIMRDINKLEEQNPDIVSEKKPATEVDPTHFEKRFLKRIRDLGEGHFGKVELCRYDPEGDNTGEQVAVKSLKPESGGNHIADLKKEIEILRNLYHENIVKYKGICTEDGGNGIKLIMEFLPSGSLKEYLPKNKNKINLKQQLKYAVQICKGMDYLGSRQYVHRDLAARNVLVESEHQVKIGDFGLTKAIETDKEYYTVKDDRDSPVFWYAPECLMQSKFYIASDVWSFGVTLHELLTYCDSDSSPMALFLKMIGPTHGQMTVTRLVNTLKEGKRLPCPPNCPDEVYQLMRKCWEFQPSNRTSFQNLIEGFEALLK
Sequence of E3 ubiquitin-protein ligase XIAP (P98170 whole entry, the tested form may be a part): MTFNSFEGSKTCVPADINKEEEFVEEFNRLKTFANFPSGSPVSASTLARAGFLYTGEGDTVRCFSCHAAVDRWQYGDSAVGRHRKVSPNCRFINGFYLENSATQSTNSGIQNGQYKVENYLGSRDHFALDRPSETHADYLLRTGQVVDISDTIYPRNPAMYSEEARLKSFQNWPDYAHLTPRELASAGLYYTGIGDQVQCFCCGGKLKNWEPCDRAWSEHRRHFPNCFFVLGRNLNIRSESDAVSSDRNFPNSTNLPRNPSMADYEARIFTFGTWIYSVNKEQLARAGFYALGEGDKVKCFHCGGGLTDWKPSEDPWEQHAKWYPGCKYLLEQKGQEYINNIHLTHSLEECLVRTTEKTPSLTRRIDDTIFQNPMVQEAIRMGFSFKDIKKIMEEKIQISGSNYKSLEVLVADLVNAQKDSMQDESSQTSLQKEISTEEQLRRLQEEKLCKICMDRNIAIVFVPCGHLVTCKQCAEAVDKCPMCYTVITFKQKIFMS

Take `O=C(Nc1ccc(Nc2nccc(Nc3cc(C4CCCC4)[nH]n3)n2)cc1)Nc1cccc(C(F)(F)F)c1`: the EC50 (commonly the concentration that produces a half-maximal response) in test [1] worked out at 223 nM. Further, the Emax in test [2] is 14%.
With `CC(C)=CCC/C(C)=C/Cc1c(O)c(CC=C(C)C)c2c(c1O)C(=O)C1=CC3CC4C(C)(C)OC(C/C=C(\C)C(=O)O)(C3=O)C14O2` (stereo unspecified), the Kd (usually a measure of binding affinity in units of concentration) in test [3] came to 182 nM.
In the case of `CNc1nc(Nc2cn(C(C)(C)C#N)nc2C)ncc1C(F)(F)F` [DNL-201], the affinity in test [4] corresponds to a Ki of 0.6 nM.
For the compound `CNC(=O)COc1cc2cc(Nc3nc(N4C[C@H](C)C[C@H](C)C4)ncc3Cl)cc(OC)c2n(C)c1=O`, the Activity in [5] is > 90%; in test [6] it was 50%. Also, the IC50 (commonly the midpoint of a concentration-inhibition curve) in [7] was 3 nM.
`CCNc1nc(Nc2cc(F)c(C(=O)N3CCOCC3)cc2OC)ncc1C(F)(F)F`: the Ki (in general, a dissociation constant, usually derived from enzyme kinetics or from competition with a known ligand) in [4] turned out to be 1 nM.
In test [8], `CC(=O)N1CCN(CCOc2ccc(C3CCN(C4=Nn5c(nnc5C(F)(F)F)CC4)CC3)cc2)CC1` [AZD3514] had a Ki of 5000 nM. That is a single-digit micromolar value.
Consider `CN[C@@H](C)C(=O)N[C@H](C(=O)N1CCC[C@H]1C(=O)N[C@H](C(=O)OC)C(c1ccccc1)c1ccccc1)C1CCCCC1` (H-[NMeA][Chg]P[Dip]-OMe), for which the Kd in [9] came to 16 nM; in [10], 6 nM.
Regarding `C[C@H]1[C@@H](O)O[C@@H]2O[C@@]3(C)CC[C@H]4[C@H](C)CC[C@@H]1[C@@]24OO3` [ARTENIMOL], the IC50 in test [11] and in test [14] was 1000 nM in each case. Besides, the “Ratio IC50” value in test [12] and in [13] was 5 each time.
For the compound `C[C@@H]1CCN(C(=O)N2CCCC2)C[C@@H]1N(C)c1ncnc2[nH]ccc12`, the IC50 in test [15] was determined as 128 nM; in [16], 7.1 nM; in [17], 2.8 nM; in test [18], 7.5 nM. The Activity in test [19] and in [20] was 50% each time.
Turning to `CNC(=O)COc1cc2cc(Nc3nc(N4CCC(C(=O)N(C)C)CC4)ncc3Cl)cc(OC)c2n(C)c1=O`, the Activity in test [5] was > 90%; in test [6], 50%.
On to `COc1cc(Nc2ncc3c(n2)-c2ccc(Cl)cc2C(c2c(F)cccc2OC)=NC3)ccc1C(=O)O` [ALISERTIB], for which the Emax in [2] turned out to be 37%.
The compound `Cc1cc(C)n(-c2ncc(Cl)c(Nc3ccc(Cl)cc3)n2)n1` gave an IC50 in test [21] of 18000 nM.
In [3], `CCOCCNC(=O)/C(C)=C/CC12OC(C)(C)C3CC(C=C4C(=O)c5c(O)c(C/C=C(\C)CCC=C(C)C)c(O)c(CC=C(C)C)c5OC431)C2=O` (stereo unspecified) came in with a Kd of 116 nM.

The values above are taken from ChEMBL document CHEMBL4665673, “Monomeric Targeted Protein Degraders” (J Med Chem, 2020).
